Assay results from patent publication US7812042B2, “Pharmaceutical compositions and therapeutic applications for the use of a novel vitamin B12 derivative, N-acetyl-L-cysteinylcobalamin” (priority 2006, dated 2010).
Values joined by “and” are separate entries in the source; they are usually repeats but may differ in a detail not shown here. Equal values may be shown once.

Columns and labels:
[1] = tested on: SK-HEP-1 cells; assay: Protection of endothelial cells from homocysteine-induced cell death (MTS assay, absorbance at 490 nm; includes comparison of NACCbl, NAC, cyanocobalamin+NAC, free thiols, other cobalamins, folate); assay type: cell-based, Human; conditions: for Absorbance at 490 nm (n = 6): replicates Y1-Y6, NAC 75 μM
Method: The effect of a constant concentration of NACCbl and GSCbl to protect cells against variable concentrations of homocysteine was assessed. […] Cell viability was determined by MTS® assay. Data shown in FIG. 4 are representative of means ±SE of 6 independent samples. FIG. 4 illustrates that NACCbl (▪) and GSCbl (▴) protect endothelial cells from the effect of homocysteine. […] Cell viability was determined by MTS® assay. […] There was a decrease in protection as homocysteine concentration increased, but there was still ˜60% survival at 50 μM homocysteine.
The data was normalized (log 2 and log 10) as shown in FIGS. 16 and 17 and Tables 16 and 17, respectively, below.

[2] = tested on: SK-HEP-1 cells; assay: Effect of high concentrations of NACCbl and GSCbl on SK-HEP-1 cells (MTS assay); assay type: cell-based, Human; parameters: cell viability (MTS), raw readings (FIG. 13): reference not given here; conditions: 24 hours; for cell viability (MTS), raw readings (FIG. 13): 3 replicates
[3] = tested on: SK-HEP-1 cells; assay: Protection of endothelial cells from H2O2-induced cell death (MTS assay); assay type: cell-based, Human
Method: The effect of increasing concentrations of NACCbl and GSCbl to protect endothelial cells from the effect of H2O2 was assessed. […] Cell viability was determined by MTS® assay. […] Cell viability was determined by MTS® assay. […] Cell viability was determined by MTS® assay.

[4] = tested on: Hsp32; assay: Hsp32 gene expression in SK-HEP-1 cells (RT-PCR, densitometry); assay type: cell-based, Human; conditions: homocysteine 30 μM, folate 30 μM (2 hr), Sn(IX) protoporphyrin 25 μM, quercitin 15 μM
Method: Cells were plated into 6-, 12-, or 24-well cell culture clusters, at 2×10^3, 2×10^5, or 1×10^5 cells per well and incubated until 90% confluent. Treatments were applied as above.
Following incubation, cells were subjected to mRNA extraction followed by cDNA synthesis for each sample under test. Polymerase chain reaction cDNA templates were prepared for simplex PCR protocol. PCR products were then visualized using a UV Transilluminator and images captured using a Kodak ID gel imaging system. Densitometry and statistical analysis was then performed on each gene expression band image using PSP® v 10.0 running under Windows XP®.
mRNA extraction was performed using the Quickprep micro mRNA Purification Kit. Following incubation of cells post-treatment, the media was removed from the cells, adherent cells were re-suspended in 0.4 ml extraction buffer and 0.8 ml elution buffer at 65° C. was added.
A reaction mixture was prepared in individual microcentrifuge tubes containing 2 cDNA synthesis beads, 32 μl of the mRNA solution and 1 μl of pd(N)6. This mixture was incubated at 37° C. in a water bath for 60 minutes. After incubation, 27 μl of RNase-free DEPC treated water was added to each tube to make a total volume 60 μl. cDNA samples were prepared in duplicate. Sample 1 was used immediately in RT-PCR protocol. Sample 2 was prepared for qPCR protocol by the addition of 150 μl of 95% ice-cold ethanol and stored at −20° C.
Microcentrifuge tubes from puReTaq™Ready-To-Go™ PCR Beads containing one PCR bead were labeled for each sample required. Added to the PCR bead were 17 μl of RNase-free DEPC treated water, 1 μl sense primer, 1 μl anti-sense primer and 5 μl of the cDNA solution. RT-PCR conditions were as follows: Hsp70 and β-actin, pre-treatment step, 94° C. for 1 minute, followed by denaturing at 92° C. for 1 minute, annealing at 60° C. for 1 minute and extension at 72° C. for 1 minute. Total cycles, 30, post-treatment was then carried out at 72° C. for 10 minutes. For Hsp32, pre-treatment step, 95° C. for 2 minutes, followed by denaturing at 94° C. for 30 seconds, annealing at 58° C. for 1 minute and extension at 72° C. for 1 minute. Total cycles 45, post treatment was then carried out at 72° C. for 10 minutes. Following RT-PCR, samples were stored at −20° C.
Amplification products were separated on a 1.8% agarose gel (m/v) in TAE buffer. The size of the PCR products was determined by comparison to DNA fragments of a well-defined size; therefore, 5 μl of the DNA Ladder was carefully pipetted into the first well of the gel. Successive 10 μl of each PCR sample was then pipetted into subsequent wells on the agarose gel. The gel was connected to the Power Pack and run at 100V for 30 minutes.
Gels were visualised on a UV Transilluminator. Photographs were stored using a Kodak Digital camera system fitted with a UV filter set connected to a PC. Images were then transferred to the Kodak ID gel imaging system. Densitometry was performed on each gene expression band using PSP™ v10 running under Windows XP®.
Experiments were conducted using Hsp32 and Hsp 70 gene expression as the basis for study. […] (all treatments for 2 hours).

[5] = tested on: Jurkat (T-cells); assay: Survival of Jurkat cells at variable concentration of Hcy; assay type: cell-based; conditions: NACCbl 30 μM, NAC 75 μM, CNCbl 15 μM, folate 30 μM; especially at higher homocysteine concentrations
Method: Additional cell studies were conducted using Jurkat (T-cells) and U937 (monocyte) cell lines. These experiments confirmed that other cell types are killed by homocysteine, although these cell lines are not as sensitive as the SK-HEP-1 cell line discussed in the experiments above and are thus more resistant to homocysteine. Cells were exposed to NACCbl 30 μM, NAC 75 μM, CNCbl 15 μM, and folate 30 μM. […] In these Figures, the monocytes are N=6 and concentrations are as follows: NACCbl 30 μM, NAC 75 μM, CNCbl 15 μM, Folate 30 μM

[6] = tested on: SK-HEP-1 cells; assay: Protection from apoptosis induced by homocysteine (Caspase-3 activity); assay type: cell-based, Human; conditions: 30 μM pre-treatment two hours, then 30 μM homocysteine two hours
Method: Caspase 3 is activated when cells undergo apoptosis. Caspase-3 assay is a standard for apoptosis assay. Homocysteine is a known inducer of apoptosis. Cells were cultured in 96-well plates for 24 hours and then treated with reagents under test conditions. Cytotoxic agents, H2O2 and etoposide were added to negative control wells. The assay was performed according to the manufacturer's protocol, as follows: Cells were re-suspended in 100 μl of clear media and 50 μl of Caspase-3 substrate solution was immediately added to each test well. […] Cell viability was determined by MTS® assay. […] Cell viability was determined by MTS® assay.

[7] = 2 hours pre-incubation, then 25 μM H2O2 24 hours

## CC(=O)NC(C[S-])C(=O)O.CC1=C2N=C(C=C3N=C(C(C)=C4[N-]C(C(CC(N)=O)C4(C)CCC(=O)NCC(C)OP(=O)([O-])OC4C(CO)OC(n5cnc6cc(C)c(C)cc65)C4O)C4(C)N=C1C(CCC(N)=O)C4(C)CC(N)=O)C(CCC(N)=O)C3(C)C)C(CCC(N)=O)C2(C)CC(N)=O.[Co+3] [NACCbl, N-acetyl-L-cysteinylcobalamin]
[1]; Conc. of Hcy 50.000, NACCbl 30 μM
  Absorbance at 490 nm (n = 6): 1.678 and 1.832 and 1.881 and 1.730 and 1.740 and 1.855
[1]; Conc. of Hcy 100.000, NACCbl 30 μM
  Absorbance at 490 nm (n = 6): 1.678 and 1.592 and 1.694 and 1.773 and 1.732 and 1.639
[1]; Conc. of Hcy 200.000, NACCbl 30 μM
  Absorbance at 490 nm (n = 6): 1.378 and 1.167 and 1.330 and 1.456 and 1.491 and 1.537
[1]; Hcy 30 μM, NAC 45, GSH 100, NACCbl 12.5, GSCbl 15 μM, with or without folate 25 μM
  protection against homocysteine-induced damage compared with free thiols: superior to the free thiols
[1]; concentrations below 12.5 μM, 30 μM homocysteine 24 hours
  protection compared with GSCbl (p<0.001): significantly greater than that provided by GSCbl
[1]; variable Hcy concentration, NACCbl 30 μM
  prevention of cell death compared with NAC and cyanocobalamin+NAC: superior to either NAC (75 μM) alone or in combination with CNCbl
[1]; ≧12.5 μM NACCbl 2 hours, then 30 μM homocysteine 24 hours
  survival: 80%
[2]; 10 mM
  survival: over 60%
[2]; compound conc. 0.61 (μM scale)
  cell viability (MTS), raw readings (FIG. 13): 2.572 and 2.498 and 2.473
[2]; compound conc. 1.22 (μM scale)
  cell viability (MTS), raw readings (FIG. 13): 2.546 and 2.524 and 2.538
[2]; compound conc. 2.441 (μM scale)
  cell viability (MTS), raw readings (FIG. 13): 2.592 and 2.536 and 2.499
[2]; compound conc. 4.882 (μM scale)
  cell viability (MTS), raw readings (FIG. 13): 2.532 and 2.463 and 2.457
[2]; compound conc. 9.765 (μM scale)
  cell viability (MTS), raw readings (FIG. 13): 2.505 and 2.474 and 2.514
[2]; compound conc. 19.531 (μM scale)
  cell viability (MTS), raw readings (FIG. 13): 2.485 and 2.466 and 2.502
[2]; compound conc. 39.062 (μM scale)
  cell viability (MTS), raw readings (FIG. 13): 2.503 and 2.474 and 2.453
[2]; compound conc. 78.125 (μM scale)
  cell viability (MTS), raw readings (FIG. 13): 2.521 and 2.488 and 2.475
[2]; compound conc. 156.25 (μM scale)
  cell viability (MTS), raw readings (FIG. 13): 2.484 and 2.42 and 2.492
[2]; compound conc. 312.5 (μM scale)
  cell viability (MTS), raw readings (FIG. 13): 2.409 and 2.301 and 2.437
[2]; compound conc. 625 (μM scale)
  cell viability (MTS), raw readings (FIG. 13): 2.358 and 2.242 and 2.347
[2]; compound conc. 1250 (μM scale)
  cell viability (MTS), raw readings (FIG. 13): 2.2 and 2.055 and 2.3
[2]; compound conc. 2500 (μM scale)
  cell viability (MTS), raw readings (FIG. 13): 1.989 and 1.891 and 2.085
[2]; compound conc. 5000 (μM scale)
  cell viability (MTS), raw readings (FIG. 13): 2.081 and 2.003 and 2.004
[2]; compound conc. 10000 (= 10 mM)
  cell viability (MTS), raw readings (FIG. 13): 1.908 and 1.82 and 1.732
[3]; 25 μM H2O2 24 hours
  protection by NACCbl compared with GSCbl: no difference
[3]; [7]
  concentration required to achieve >80% survival: 100 µM
  pre-incubation concentration that protected cells from H2O2-induced cell death: ≥ 2.0 µM
[4]
  effect on Hsp32 gene expression: induce Hsp32
[5]
  protection of Jurkat cells from death by homocysteine, comparison: more effective at protecting these cells from death than NAC, CN Cbl or folate
[6]
  protection against apoptosis induced by homocysteine: total protection
